Type in all cases: cell-based
For assay [1], the system named is Ba/F3-Flt3-transfected cells in the presence of 10 ng/ml murine IL3. Kind of assay: Ba/F3-Flt3 (plus IL3) cellular proliferation counterscreen, Alamar Blue. The following applies: plus 10 ng/ml murine IL3; for IC50: Mus musculus, read-out: BAF3-FLT3 (PLUS IL3) 384 well pIC50 (converted). (A counterscreen serves to expose hits that act by an unwanted route or on another target.)

The subject of assay [2] is Ba/F3-FGFR1-transfected cells in the presence of 10 ng/ml murine IL3. Kind of assay: Ba/F3-FGFR1 (plus IL3) cellular proliferation counterscreen, Alamar Blue. The following applies: for IC50: Mus musculus. In a few lines:
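First, compound was dispensed and cells added at 20000/well, or 10000/well in the larger-well version. Next came a 24 h incubation at 37 °C. Finally, resazurin reagent was applied for 4 h before fluorescence measurement at 540/590 nm.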

Assay [3] has as its system Ba/F3-FGFR3-transfected cells in the presence of 10 ng/ml murine IL3. Kind of assay: Ba/F3-FGFR3 (plus IL3) cellular proliferation counterscreen, Alamar Blue. The conditions noted are these: for IC50: Mus musculus. How it is done: Ba/F3-FGFR3 (Minus IL3 or Plus IL3) (Cellular Proliferation Assay)
(§1) In a 384 well plate, 100 nl of compound dilution in DMSO was sprayed before adding 50 μl cell culture medium (phenol red free RPMI-1640, 10% FBS, 2 mM L-Glutamine and 50 μg/ml Gentamycin) containing 20000 cells per well of Ba/F3-FGFR3-transfected cells. Cells were put in an incubator at 37° C. and 5% CO2. After 24 hours, 10 μl of Alamar Blue solution (0.5 mM K3Fe(CN)6, 0.5 mM KaFe(CN)6, 0.15 mM Resazurin and 100 mM Phosphate Buffer) was added to the wells, incubated for 4 hours at 37° C. and 5% CO2 before RFU's (Relative Fluorescence Units) (ex. 540 nm., em. 590 nm.) were measured in a flurorescence plate reader.
As a counterscreen the same experiment was performed in the presence of 10 ng/ml murine IL3.
as §1, with “a 96” for “a 384”, “plate, 180” for “plate, 100 nl of compound dilution in DMSO was sprayed before adding 50”, “containing 10000” for “containing 20000”, “Ba/F3-FGFR3-transfected cells were pipette and 20 μl of compound dilution in DMSO was added.” for “Ba/F3-FGFR3-transfected cells.”, “hours, 40” for “hours, 10”

Where [4] appears, read: plus IL3, 384 well, read-out: BAF3-FGFR 1 (PLUS IL3) 384 well pIC50 (converted).
[5] abbreviates: plus 10 ng/ml murine IL3, 384 well, read-out: BAF3-FGFR 3 (PLUS IL3) 384 well pIC50 (converted).

Where two headings read alike, the source gives them in different places.

Regarding `COc1cc(OC)cc(N(CCO)c2ccc3ncc(C(=O)Nc4cnn(C)c4)nc3c2)c1` [Compound 184], the IC50 in assay [1], in assay [2] (setting [4]) and in assay [3] (setting [5]) was above 10 µM throughout.

As for `COc1cc(OC)cc(N(CCNC(C)C)c2ccc3ncc(-c4ccc(N5CCOCC5)nc4)nc3c2)c1` [Compound 168], the IC50 is around 8.32 µM in assay [1], 7.76 µM in assay [2] (setting [4]) and around 9.33 µM in assay [3] (setting [5]).

Turning to `COCC(O)CN(c1cc(OC)cc(OC)c1)c1ccc2ncc(-c3cccnc3)nc2c1` (single isomer, unassigned) [Compound 47], in assay [1], the “BAF3-FLT3 (PLUS IL3) 384 well pIC50” value is below 5. Moreover, in assay [2] (plus IL3, 384 well), the “BAF3-FGFR 1 (PLUS IL3) 384 well pIC50” value is reported as below 5. In addition, the “BAF3-FGFR 3 (PLUS IL3) 384 well pIC50” value in assay [3] (plus 10 ng/ml murine IL3, 384 well) is given as below 5.

Turning to `COc1cc(OC)cc(N(CCO)c2ccc3ncc(-c4ccc(N5CCN(C(=O)OC(C)(C)C)CC5)cc4)nc3c2)c1` [Compound 156], the IC50 in assay [1] was above 10 µM; in assay [2] (setting [4]), 8.91 µM; in assay [3] (setting [5]) it was above 10 µM.

With `COc1cc(OC)cc(N(CCNC(C)C)c2ccc3ncc(C(=O)N4CCN(C)CC4)nc3c2)c1` [Compound 179], the IC50 in assay [1], in assay [2] (setting [4]) and in assay [3] (setting [5]) was above 10 µM each time.

Consider `COc1cc(OC)cc(N(CCNC(C)C)c2ccc3ncc(C(=O)N4CCCCC4)nc3c2)c1` [Compound 180], for which the IC50 in assay [1], in assay [2] (setting [4]) and in assay [3] (setting [5]) was above 10 µM each time.

On to `COc1cc(OC)cc(N(CC2CC2)c2ccc3ncc(NC(=O)c4ccc(F)cc4)nc3c2)c1` [Compound 28], for which the IC50 was above 10 µM in assay [1]; above 10 µM in assay [2] (plus IL3, 96 well, read-out: BAF3-FGFR 1 (PLUS IL3) 96 well pIC50 (converted)); above 10 µM in assay [2] (setting [4]); above 10 µM in assay [3] (setting [5]); above 10 µM in assay [3] (plus IL3, 96 well, read-out: BAF3-FGFR 3 (PLUS IL3) 96 well pIC50 (converted)).

On to `COc1cc(OC)cc(N(CCNC(C)C)c2ccc3ncc(N4CCC(CN)CC4)nc3c2)c1` [Compound 67], for which the IC50 is above 10 µM in assay [1], 8.51 µM in assay [2] (setting [4]) and above 10 µM in assay [3] (setting [5]).

Regarding `COc1cc(OC)cc(N(CCO)c2ccc3ncc(/C(C)=N/OC(C)(C)C)nc3c2)c1` [Compound 171], the IC50 in assay [1], in assay [2] (setting [4]) and in assay [3] (setting [5]) was above 10 µM in each case.

For `CNc1ccc(-c2cnc3ccc(N(CCCNCC(F)(F)F)c4cc(OC)cc(OC)c4)cc3n2)cn1` [Compound 129], the IC50 in assay [1], in assay [2] (setting [4]) and in assay [3] (setting [5]) was above 10 µM each time.

As to `COc1cc(OC)cc(N(CCO)c2ccc3ncc(-c4ccccc4CCO)nc3c2)c1` [Compound 151], the IC50 in assay [1], in assay [2] (setting [4]) and in assay [3] (setting [5]) was above 10 µM throughout.

Regarding `COc1cc(OC)cc(N(CCCO)c2ccc3ncc(-c4ccnc(F)c4)nc3c2)c1` [Compound 142], the IC50 in assay [1], in assay [2] (setting [4]) and in assay [3] (setting [5]) was above 10 µM throughout.

With `COc1cc(OC)cc(N(CCNC(C)C)c2ccc3ncc(-n4cnc(COC(C)=O)c4)nc3c2)c1` [Compound 167], the IC50 in assay [1], in assay [2] (setting [4]) and in assay [3] (setting [5]) was above 10 µM each time.

`COc1cc(OC)cc(N(CCO)c2ccc3ncc(C4CCN(C(=O)OC(C)(C)C)CC4)nc3c2)c1` [Compound 185]: the IC50 in assay [1], in assay [2] (setting [4]) and in assay [3] (setting [5]) was above 10 µM throughout.

The values above are taken from US10052320B2, “Substituted quinoxalines as FGFR kinase inhibitors” (ASTEX THERAPEUTICS LIMITED, priority 2011, dated 2018).
